This note sets out measurements from PMC3246799 (Science (New York, N.Y.), 2011).

The target in this assay is T1, AHR2-2 (tomcod AHR2) (Microgadus tomcod, UniProt B6E9W5).
T1 sequence (B6E9W5 1-1104): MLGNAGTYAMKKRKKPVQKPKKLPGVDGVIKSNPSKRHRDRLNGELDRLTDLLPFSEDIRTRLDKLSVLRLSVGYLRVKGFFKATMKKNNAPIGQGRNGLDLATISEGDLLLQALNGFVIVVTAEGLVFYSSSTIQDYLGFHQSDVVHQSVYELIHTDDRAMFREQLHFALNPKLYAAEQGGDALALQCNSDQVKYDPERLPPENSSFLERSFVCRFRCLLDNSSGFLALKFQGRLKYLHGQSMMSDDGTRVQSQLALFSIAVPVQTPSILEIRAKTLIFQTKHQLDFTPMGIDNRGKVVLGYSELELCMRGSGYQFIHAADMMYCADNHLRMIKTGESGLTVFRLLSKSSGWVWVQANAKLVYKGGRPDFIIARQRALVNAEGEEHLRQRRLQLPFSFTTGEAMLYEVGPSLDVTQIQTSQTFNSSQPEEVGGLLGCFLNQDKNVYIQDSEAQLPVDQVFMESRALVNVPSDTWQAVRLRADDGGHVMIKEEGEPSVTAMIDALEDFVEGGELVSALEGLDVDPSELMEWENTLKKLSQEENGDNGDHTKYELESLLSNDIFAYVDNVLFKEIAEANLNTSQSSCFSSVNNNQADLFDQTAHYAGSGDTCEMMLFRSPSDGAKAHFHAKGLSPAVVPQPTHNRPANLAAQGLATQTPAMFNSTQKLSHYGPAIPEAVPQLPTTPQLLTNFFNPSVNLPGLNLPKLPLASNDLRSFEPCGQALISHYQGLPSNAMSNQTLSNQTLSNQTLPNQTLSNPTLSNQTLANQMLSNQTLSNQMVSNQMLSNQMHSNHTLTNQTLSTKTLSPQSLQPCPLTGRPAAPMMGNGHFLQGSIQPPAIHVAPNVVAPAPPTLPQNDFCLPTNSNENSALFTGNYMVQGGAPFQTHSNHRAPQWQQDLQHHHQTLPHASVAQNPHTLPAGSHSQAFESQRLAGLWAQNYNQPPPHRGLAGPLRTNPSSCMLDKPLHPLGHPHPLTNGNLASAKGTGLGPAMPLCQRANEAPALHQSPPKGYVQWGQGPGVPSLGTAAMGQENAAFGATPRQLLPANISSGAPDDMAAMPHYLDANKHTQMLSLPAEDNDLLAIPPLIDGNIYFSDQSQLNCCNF
The assay is described as follows: saturation binding of [3H]TCDD, velocity sedimentation on sucrose gradients. The conditions noted are these: labelled compound; 0.1 to 12 nM [3H]TCDD; apparent equilibrium constant.

`Clc1cc2c(cc1Cl)Oc1cc(Cl)c(Cl)cc1O2` [TCDD, 2,3,7,8-tetrachlorodibenzo-p-dioxin]: the Kd stood at 1.27 nM.
